Our source for the IC50 values is EP4803519A1, “NOVEL PRMT5 INHIBITOR AND USE THEREOF” (Shanghai Apeiron Therapeutics Company Limited, priority 2023, dated 2025).

The test system of assay [1] is LU99 MTAP(-/-)deleted cells. The experiment in a line: Inhibitory activity on proliferation of LU99 MTAP(-/-)deleted cells (Cell-Titer Glo). It counts as cell-based. The note with it: Homo sapiens, Lu-99, 144 h, incubated 6 d, 0-1,000 nM. The procedure: Materials and cells: LU99 MTAP deleted cell line was purchased from Kyinno Biotechnology (China); cell culture medium and fetal bovine serum were purchased from Thermo Fisher Scientific (USA); 384-well plates were purchased from PerkinElmer (USA); Cell-Titer Glo kits were purchased from Promega (USA).
Cell culture: LU99 MTAP(-/-)deleted cells were cultured with medium containing 10% fetal bovine serum at 37°C in 5% carbon dioxide. Only cells in the logarithmic growth phase could be used for the test.
(§1) Test of inhibitory activity on cell proliferation: The Cell-Titer Glo kit was used to test the proliferation inhibitory activity of the compounds on LU99 MTAP(-/-)deleted cells. The cell concentration was adjusted, rendering that cells were inoculated into a 384-well plate at 40 µL per well and incubated overnight at 37°C and 5% carbon dioxide. 40 nL of the compound was added to each well to reach a final concentration of 0-1,000 nM (starting concentration 1,000 nM, 2.5-fold dilution, 10 points), and the cell plate with 0.2% DMSO content was incubated at 37°C and 5% carbon dioxide for 6 d. 40 µL of Cell-Titer Glo reagent was added to test cell viability.

The test system of assay [2] is LU99 MTAP overexpressing cells. Nature of the assay: Inhibitory activity on proliferation of LU99 MTAP overexpressing cells (Cell-Titer Glo). It counts as cell-based. Particulars: Homo sapiens, Lu-99, 144 h, incubated 6 d, 0-10,000 nM. The procedure:
Materials and cells: LU99 MTAP overexpressing cell line was purchased from Kyinno Biotechnology (China); cell culture medium and fetal bovine serum were purchased from Thermo Fisher Scientific (USA); 384-well plates were purchased from PerkinElmer (USA); Cell-Titer Glo kits were purchased from Promega (USA).
Cell culture: LU99 MTAP overexpressing cells were cultured with medium containing 10% fetal bovine serum at 37°C in 5% carbon dioxide. Only cells in the logarithmic growth phase could be used for the test.
as §1, with “MTAP overexpressing” for “MTAP(-/-)deleted”, “0-10,000” for “0-1,000”, “10,000” for “1,000”

Some results are limits rather than exact numbers.

What is called IC50 is the midpoint of a concentration-inhibition curve. With `CN(C(=O)c1ccc2nc(N)c3nsnc3c2c1)C1COC(C)(C)c2cc(C(F)(F)F)ccc21` (centres unmarked) [Example 60, 4-Amino-N-(1,1-dimethyl-7-(trifluoromethyl)isochroman-4-yl)-N-methyl-[1,2,5]thiadiazolo[3,4-c]quinoline-8-carboxamide], the 50% inhibitory concentration (IC50) is > 3000 nM in assay [1] and 2950 nM in assay [2].
In the same order, the values of `CN(C(=O)c1ccc2nc(N)c3cnn(C)c3c2c1)[C@@H]1COC(C)(C)c2cc(N3CCS(=O)(=O)CC3)ccc21` [Example 78, […]] are 17 nM and 3740 nM.
The corresponding values for `CN(C(=O)c1cc2c(cn1)nc(N)c1cnn(C)c12)C1COC(C)(C)c2cc(C(F)(F)F)ncc21` (centres unmarked) [Example 79, 4-Amino-N-(1,1-dimethyl-7-(trifluoromethyl)-3,4-dihydro-1H-pyrano[4,3-c]pyridin-4-yl)-N,1-dimethyl-1H-pyrazolo[4,3-c][1,7]naphthyridine-8-carboxamide] are 41.9 nM and 4380 nM.
In the same order, the values of `CN(C(=O)c1ccc2nc(N)c3cnn(C)c3c2c1)[C@@H]1COC2(CCCC2)c2cc(C(F)(F)F)ccc21` [Example 82, (S)-4-amino-N,1-dimethyl-N-(7'-(trifluoromethyl)spiro[cyclopentane-1,1'-isochroman]-4'-yl)-1H-pyrazolo[4,3-c]quinoline-8-carboxamide] are 5.9 nM and 523 nM.
Turning to `CN(C(=O)c1ccc2nc(N)c3cnn(C)c3c2c1)[C@@H]1COC(C)(C)c2cc(N3CC4CCC(C3)O4)ccc21` [Example 85, N-[(4S)-1,1-dimethyl-7-(8-oxa-3-azabicyclo[3.2.1]octan-3-yl)isochroman-4-yl](4-amino-1-methylpyrazolo[4,5-c]quinolin-8-yl)-N-methylformamide], the IC50 in assay [1] came to 7.1 nM; in assay [2], 2140 nM.
Consider `CN(C(=O)c1ccc2nc(N)c3cnn(C)c3c2c1)[C@@H]1COC(C)(C)c2cc(C3CCOCC3)ccc21` [Example 58, (S)-4-amino-N-(1,1-dimethyl-7-(tetrahydro-2H-pyran-4-yl)isochroman-4-yl)-N,1-dimethyl-1H-pyrazolo[4,3-c]quinoline-8-carboxamide], for which the figures for the IC50 in assay [1] and in assay [2] were 5.5 nM and 987 nM, respectively.
The corresponding values for `CN(C(=O)c1ccc2nc(N)c3nsnc3c2c1)C1COC2(CCC2)c2cc(C(F)(F)F)ccc21` (centres unmarked) [Example 59, 4-Amino-N-methyl-N-(7'-(trifluoromethyl)spiro[cyclobutane-1,1'-isochroman]-4'-yl)-[1,2,5]thiadiazolo[3,4-c]quinoline-8-carboxamide] are 3140 nM and 4020 nM.
